Assay results as given in patent US7064120B2, “Tricyclic pyridyl carboxamides and derivatives thereof tocolytic oxytocin receptor antagonists” (Wyeth, priority 2001, dated 2006).

Biological target: T1, human vasopressin V2 receptor subtype (Homo sapiens, UniProt P30518)
T1 construct: host or cells: CHO cells, stably transfected (pZeoSV vector)
Experiment: Vasopressin binding in CHO cell membranes expressing human vasopressin V2 subtype receptors ([3H]arginine vasopressin radioligand binding)
Conditions: 100 nM
Method: Vasopressin Binding in Chinese Hamster Ovary Cell Membranes Expressing Human Vasopressin V2 Subtype Receptors
Chinese Hamster Ovary (CHO) cells stably transfected with the human V2 subtype receptors were obtained from M. Thibonnier, Case Western Reserve University School of Medicine, Cleveland, Ohio.
The trypsin is removed by aspiration and the cells dislodged by tapping. Cell Culture medium (e.g. 30 mL for 1:30 split) is immediately added and mixed well to inactivate trypsin. 1 mL of detached cells is added to new culture flasks containing fresh Cell Culture medium (e.g. into 25 mL per T-150 flask), and mixed gently. The cells are incubated at 37° C. in 5% CO2. The medium is changed at 3 to 4 day interval (or as appropriate). […] All steps are done under sterile conditions.
The cells are washed twice gently with Hank's Balanced Salt solution (e.g. use 10 mL per T-150 flask). […] The contents are transferred to centrifuge tubes (50 mL) kept in ice bath. All subsequent steps are done at 4° C. The tubes are centrifuged at 300×g for 15 min (1380 rpm on SORVAL, Model RT6000D, using the rotor for 50 mL tubes). The supernatant is discarded and the cells suspended in homogenizing buffer(10 mM Tris-HCl containing 0.25 M sucrose and 1 mM EDTA, pH 7.4) ensuring that the volume of the buffer is about ten times the volume of the cell pellet. The cells are pooled into a centrifuge tube (50 mL) and homogenized with Polytron at setting 6 for 10 sec. The homogenate is transferred into a Potter-Elvjehm homogenizer and homogenized with 3 strokes. The homogenate is centrifuged at 1500×g for 60 min at 4° C. (3100 rpm using SORVAL, model RT6000D, using the rotor for 50 mL tubes). The pellet is discarded. The supernatant is centrifuged at 100,000×g for 60 min. at 4° C. (Beckman L8-80M ultracentrifuge; spin at 37,500 rpm with rotor type 70 Ti for 50 mL tubes; 38,000 rpm with type 80Ti for 15 mL tubes; or 35,800 rpm with rotor type 45Ti). The supernantant is discarded and the pellet suspended in 3 to 4 mL of Tris buffer (50 mM TRIS-HCl, pH 7.4). The protein content is estimated by the Bradford or Lowry method. The volume of the membrane suspension is adjusted with the membrane buffer (50 mM Tris-HCl containing 0.1% BSA and 0.1 mM PMSF) to give 3.0 mg/mL (or as appropriate) of protein. The membranes are aliquoted and stored at −70° C.
In wells of a 96-well format microtiter plate, is added 90, 110 or 130 μL (to make up a final volume of 200 μL) of assay buffer containing 50 mM of Tris-HCl (pH 7.4), […], 1 mg % aprotinin, 1 mg % leupeptin, 2 mg % 1,10-phenanthroline, 10 mg % trypsin inhibitor, and 0.1 mM PMSF. The inhibitors are added on the day of the experiment. The components are mixed at room temperature, and then kept in ice bath following adjustment of the pH to 7.4. […] For vasopressin and other peptide ligands 20 μL of 50% DMSO is added and the assay buffer volume is adjusted accordingly. To each well is added 50 μL of frozen membrane suspension thawed immediately prior to use and diluted in assay buffer to the required concentration (equivalent to 25 to 50 μg of protein/well as needed). 20 μL of 8 nM [^3H]arginine vasopressin ligand in the assay buffer, prepared just before use is added and incubated at room temperature for 60 min. shaking the plate on a mechanical shaker for the first 15 min. The incubation is stopped by rapid filtration of the plate contents followed by wash with ice-cold buffer (50 mM Tris-HCl, pH 7.4) using a cell harvester (Tomtek and Printed filtermat-B filter paper). The filter paper is thoroughly dried (7–12 min. in a microwave oven) and impregnated with MeltiLex B/H melt-on scintillation wax sheets and the radioactivity counted in a betaplate scintillation counter.
Binding data is either reported as percent inhibition at a certain concentration or if an IC50 was calculated, as a nanomolar concentration.

T1 sequence (P30518 whole entry): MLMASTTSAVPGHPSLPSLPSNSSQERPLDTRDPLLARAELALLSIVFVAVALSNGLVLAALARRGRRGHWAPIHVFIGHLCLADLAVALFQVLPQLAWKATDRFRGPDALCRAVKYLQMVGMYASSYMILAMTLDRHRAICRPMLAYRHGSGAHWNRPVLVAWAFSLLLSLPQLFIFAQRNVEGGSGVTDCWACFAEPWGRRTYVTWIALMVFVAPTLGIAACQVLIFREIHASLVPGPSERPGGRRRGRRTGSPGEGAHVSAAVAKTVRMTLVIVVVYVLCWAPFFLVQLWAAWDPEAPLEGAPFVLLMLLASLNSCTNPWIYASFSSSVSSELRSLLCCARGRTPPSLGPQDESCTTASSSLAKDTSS

Which inhibition at 0.1 µM does the source give for `Cc1ccccc1-c1ccc(C(=O)N2Cc3ccc(C(=O)N4CCN(c5ccncc5)CC4)n3Cc3ccccc32)cc1` [Example 117, {10-[(2′-Methyl-[1,1′-biphenyl]-4-yl)carbonyl]-10,11-dihydro-5H-pyrrolo[2,1-c][1,4]benzodiazepin-3-yl}[4-(4-pyridinyl)-1-piperazinyl]methanone] here?
Its inhibition at 0.1 µM is 4%.

For `COc1ccccc1-c1ccc(C(=O)N2Cc3ccc(C(=O)NCc4ccccn4)n3Cc3ccccc32)cc1OC` [Example 32, 10-[(2,2′-Dimethoxy-[1,1′-biphenyl]-4-yl)carbonyl]-N-(2-pyridinylmethyl)-10,11-dihydro-5H-pyrrolo[2,1-c][1,4]benzodiazepine-3-carboxamide], which inhibition at 0.1 µM is on record?
The inhibition at 0.1 µM was 21%.

`Cc1ccccc1-c1ccc(C(=O)N2Cc3ccc(C(=O)N4CCN(c5ccncc5)CC4)n3Cc3ccccc32)cc1C` [Example 114, {10-[(2,2′-Dimethyl-[1,1′-biphenyl]-4-yl)carbonyl]-10,11-dihydro-5H-pyrrolo[2,1-c][1,4]benzodiazepin-3-yl}[4-(4-pyridinyl)-1-piperazinyl]methanone] was tested. Which inhibition at 0.1 µM did it give?
Its inhibition at 0.1 µM is 18%.

How did the inhibition at 0.1 µM turn out when `COc1ccccc1-c1ccc(C(=O)N2Cc3ccc(C(=O)N4CCCCC4c4cccnc4)n3Cc3ccccc32)cc1` (stereo not shown) [Example 139, {10-[(2′-Methoxy-[1,1′-biphenyl]-4-yl)carbonyl]-10,11-dihydro-5H-pyrrolo[2,1-c][1,4]benzodiazepin-3-yl}[2-(3-pyridinyl)-1-piperidinyl]methanone] was run?
Its inhibition at 0.1 µM is 34%.

Which inhibition at 0.1 µM does the source give for `COc1cc(-c2ccccc2C)c(Cl)cc1C(=O)N1Cc2ccc(C(=O)N(C)CCc3ccncc3)n2Cc2ccccc21` [Example 132, 10-[(6-Chloro-3-methoxy-2′-methyl-[1,1′-biphenyl]-4-yl)carbonyl]-N-methyl-N-[2-(4-pyridinyl)ethyl]-10,11-dihydro-5H-pyrrolo[2,1-c][1,4]benzodiazepine-3-carboxamide] here?
Its inhibition at 0.1 µM is 25%.

How did the inhibition at 0.1 µM turn out when `COc1cc(-c2ccccc2C)c(Cl)cc1C(=O)N1Cc2ccc(C(=O)N3CCCCC3c3cccnc3)n2Cc2ccccc21` (stereo not shown) [Example 140, {10-[(6-Chloro-3-methoxy-2′-methyl-[1,1′-biphenyl]-4-yl)carbonyl]-10,11-dihydro-5H-pyrrolo[2,1-c][1,4]benzodiazepin-3-yl}[2-(3-pyridinyl)-1-piperidinyl]methanone] was run?
The inhibition at 0.1 µM was 29%.

Which inhibition at 0.1 µM does the source give for `COc1cc(C(=O)N2Cc3ccc(C(=O)N(C)CCc4ccncc4)n3Cc3ccccc32)ccc1-c1ccccc1C` [Example 131, 10-[(2-Methoxy-2′-methyl-[1,1′-biphenyl]-4-yl)carbonyl]-N-methyl-N-[2-(4-pyridinyl)ethyl]-10,11-dihydro-5H-pyrrolo[2,1-c][1,4]benzodiazepine-3-carboxamide] here?
Its inhibition at 0.1 µM is -5%.

How did the inhibition at 0.1 µM turn out when `COc1ccccc1-c1ccc(C(=O)N2Cc3ccc(C(=O)N(C)CCc4ccncc4)n3Cc3ccccc32)cc1OC` [Example 125, 10-[(2,2′-Dimethoxy-[1,1′-biphenyl]-4-yl)carbonyl]-N-methyl-N-[2-(4-pyridinyl)ethyl]-10,11-dihydro-5H-pyrrolo[2,1-c][1,4]benzodiazepine-3-carboxamide] was run?
The inhibition at 0.1 µM was -10%.

Which inhibition at 0.1 µM does the source give for `COc1cc(C(=O)N2Cc3ccc(C(=O)N4CCN(c5ccccn5)CC4)n3Cc3ccccc32)ccc1-n1c(C)ccc1C` [Example 145, {10-[4-(2,5-Dimethyl-1H-pyrrol-1-yl)-3-methoxybenzoyl]-10,11-dihydro-5H-pyrrolo[2,1-c][1,4]benzodiazepin-3-yl}[4-(pyridin-2-yl)-1-piperazinyl]methanone] here?
The inhibition at 0.1 µM was 2%.

Which inhibition at 0.1 µM does the source give for `COc1cccc(-c2cc(OC)c(C(=O)N3Cc4ccc(C(=O)N(C)Cc5cccnc5)n4Cc4ccccc43)cc2Cl)c1` [Example 108, 10-[(6-Chloro-3,3′-dimethoxy-[1,1′-biphenyl]-4-yl)carbonyl]-N-methyl-N-(3-pyridinylmethyl)-10,11-dihydro-5H-pyrrolo[2,1-c][1,4]benzodiazepine-3-carboxamide] here?
The inhibition at 0.1 µM was 24%.

How did the inhibition at 0.1 µM turn out when `Cc1cc(C(=O)N2Cc3ccc(C(=O)NCc4cccnc4)n3Cc3ccccc32)ccc1-c1ccccc1C(F)(F)F` [Example 48, 10-{[2-Methyl-2′-trifluoromethyl-[1,1′-biphenyl]-4-yl]carbonyl}-N-(3-pyridinylmethyl)-10,11-dihydro-5H-pyrrolo[2,1-c][1,4]benzodiazepine-3-carboxamide] was run?
Its inhibition at 0.1 µM is 9%.

With `COc1cccc(-c2cc(OC)c(C(=O)N3Cc4ccc(C(=O)NCc5cccnc5)n4Cc4ccccc43)cc2Cl)c1` [Example 43, 10-[(6-Chloro-3,3′-dimethoxy-[1,1′-biphenyl]-4-yl)carbonyl]-N-(3-pyridinylmethyl)-10,11-dihydro-5H-pyrrolo[2,1-c][1,4]benzodiazepine-3-carboxamide] as the compound, how does the inhibition at 0.1 µM read?
Its inhibition at 0.1 µM is 7%.

How did the inhibition at 0.1 µM turn out when `COc1cc(C(=O)N2Cc3ccc(C(=O)NCCc4ccccn4)n3Cc3ccccc32)ccc1-c1cccc2ccccc12` [Example 57, 10-[3-Methoxy-4-(naphthalen-1-yl)benzoyl]-N-[2-(2-pyridinyl)ethyl]-10,11-dihydro-5H-pyrrolo[2,1-c][1,4]benzodiazepine-3-carboxamide] was run?
Its inhibition at 0.1 µM is 33%.

`Cc1ccccc1-c1ccc(C(=O)N2Cc3ccc(C(=O)NCc4cccnc4)n3Cc3ccccc32)cc1` [Example 40, 10-[(2′-Methyl-[1,1′-biphenyl]-4-yl)carbonyl]-N-(3-pyridinylmethyl)-10,11-dihydro-5H-pyrrolo[2,1-c][1,4]benzodiazepine-3-carboxamide] was tested. Which inhibition at 0.1 µM did it give?
Its inhibition at 0.1 µM is 11%.

With `O=C(NCc1ccccn1)c1ccc2n1Cc1ccccc1N(C(=O)c1ccc(-c3cccc4ccccc34)cc1Cl)C2` [Example 34, 10-[2-Chloro-4-(naphthalen-1-yl)benzoyl]-N-(2-pyridinylmethyl)-10,11-dihydro-5H-pyrrolo[2,1-c][1,4]benzodiazepine-3-carboxamide] as the compound, how does the inhibition at 0.1 µM read?
Its inhibition at 0.1 µM is 5%.

Which inhibition at 0.1 µM does the source give for `Cc1ccccc1-c1ccc(C(=O)N2Cc3ccc(C(=O)NCCc4ccccn4)n3Cc3ccccc32)cc1C` [Example 50, 10-[(2,2′-Dimethyl-[1,1′-biphenyl]-4-yl)carbonyl]-N-[2-(2-pyridinyl)ethyl]-10,11-dihydro-5H-pyrrolo[2,1-c][1,4]benzodiazepine-3-carboxamide] here?
The inhibition at 0.1 µM was 17%.

Which inhibition at 0.1 µM does the source give for `COc1cc(-c2ccccc2C)c(Cl)cc1C(=O)N1Cc2ccc(C(=O)NCCc3ccccn3)n2Cc2ccccc21` [Example 55, 10-[(6-Chloro-3-methoxy-2′-methyl-[1,1′-biphenyl]-4-yl)carbonyl]-N-[2-(2-pyridinyl)ethyl]-10,11-dihydro-5H-pyrrolo[2,1-c][1,4]benzodiazepine-3-carboxamide] here?
Its inhibition at 0.1 µM is 5%.

How did the inhibition at 0.1 µM turn out when `Cc1ccccc1-c1ccc(C(=O)N2Cc3ccc(C(=O)N(C)CCc4ccncc4)n3Cc3ccccc32)cc1` [Example 130, N-Methyl-10-[(2′-methyl-[1,1′-biphenyl]-4-yl)carbonyl]-N-[2-(4-pyridinyl)ethyl]-10,11-dihydro-5H-pyrrolo[2,1-c][1,4]benzodiazepine-3-carboxamide] was run?
The inhibition at 0.1 µM was 12%.

How did the inhibition at 0.1 µM turn out when `COc1cc(-c2ccccc2C)c(Cl)cc1C(=O)N1Cc2ccc(C(=O)NCc3cccnc3)n2Cc2ccccc21` [Example 42, 10-[(6-Chloro-3-methoxy-2′-methyl-[1,1′-biphenyl]-4-yl)carbonyl]-N-(3-pyridinylmethyl)-10,11-dihydro-5H-pyrrolo[2,1-c][1,4]benzodiazepine-3-carboxamide] was run?
Its inhibition at 0.1 µM is 8%.
